What is called IC50 is the midpoint of a concentration-inhibition curve. What is called EC50 is the concentration at which the effect is half-maximal. As usually defined, the Tmax is the time from dosing to the highest level. Broadly, the Cmax is the peak of the concentration-time curve.

SMILES strings stand for the structures. Where two headings read alike, the source gives them in different places. A value given as a limit tells only on which side of the number the result lay.

Series [1] concerns SARS-CoV-2 (B.1.1.529/Omicron). Conditions: for mean reduction in SARS-CoV-2 genomic RNA (E gene) in lung tissue: 1 at 100 mg/kg, PF-332 at 50 mg/kg i.p. b.i.d.
A short description of series [2]: Mouse liver microsome stability assay. Conditions: microsomes. The protocol:
Test compounds (0.5 µM) were incubated with liver microsomes ([…]) and an NADPH-regenerating system (cofactor solution), and samples were taken at various time points, quenched with an acetonitrile solution containing an internal standard, and then analyzed by liquid chromatography with tandem mass spectrometry (LC-MS/MS). […] For the 0-min time point, 135 µL of acetonitrile (ACN) containing internal standard (IS) was added to the wells of a 0-min plate, followed by the addition of 15 µL of NADPH stock solution (6 mM). All other plates were pre-incubated at 37°C for 5 min. Fifteen microliters of NADPH stock solution (6 mM) was then added to the plates to start the reaction and timing. […] Fifty microliters of supernatant was then transferred from each well into a 96-well sample plate containing 50 µL of ultra-pure water for LC/MS analysis.
(Liver microsomes are vesicles of endoplasmic reticulum, rich in cytochrome P450 enzymes.)

The target in another series is T1, cathepsin B (Homo sapiens, UniProt P07858).
T1 construct: purchased RD Systems 953-CY-010
The experiment in a line: Cathepsin B enzymatic assay. The series is classed as biochemical. How it is done:
Assays contained 0.6 nM cathepsin B (RD Systems: 953-CY-010), 25 µM Z-LR-AMC, and 100 nL of test compound in 100% DMSO in a total of 10 µL of 50 mM MES, pH 5.0, 150 mM NaCl, 0.05% CHAPS, and 5 mM DTT in black low volume 384-well plates. The production of AMC was followed at 5-min intervals at 355 nm excitation and 460 nm emission in an Envision microplate reader (PerkinElmer). Reaction rates were determined by linear regression of the resulting progress curves. Rates were normalized to percent inhibition, where 0% is equal to the rate in the presence enzyme, and 100% is equal to the rate in the absence of enzyme. Nonlinear regression fits of the data to a one-site dose-response curve were performed using XLFit (IDBS).

For a further series, the target named is T2, thrombin (Homo sapiens, UniProt P00734).
T2 construct: purchased RD Systems 1473-SE-010
In words: Thrombin enzymatic assay. The format is biochemical. How it is done: Assays contained 25 pM thrombin (RD Systems: 1473-SE-010), 25 µM BOC-PVR-AMC, and 100 nL of test compound in 100% DMSO, in a total of 10 µL of 50 mM Tris, pH 7.0, 100 mM NaCl, 10 mM CaCl2, and 0.005% Tween20 in black low volume 384-well plates. The production of AMC was followed at 5-min intervals at 355 nm excitation and 460 nm emission in an Envision microplate reader (PerkinElmer). Reaction rates were determined by linear regression of the resulting progress curves. […] Nonlinear regression fits of the data to a one-site dose-response curve were performed using XLFit (IDBS).

The next series concerns the target T3, cathepsin L (Homo sapiens, UniProt P07711).
T3 construct: purchased RD Systems 952-CY-010
The experiment in a line: Cathepsin L enzymatic assay. The format is biochemical. The protocol:
The assays contained 25 pM cathepsin L (RD Systems: 952-CY-010), 5 µM LR-AMC, 100 nL of test compound in 100% DMSO, in a total of 10 µL of 20 mM potassium phosphate, pH 6.0, 150 mM NaCl, 0.005% Tween20, and 5 mM DTT in black low volume 384-well plates. The production of AMC was followed at 5-min intervals with excitation at 355 nm and emission at 460 nm using an Envision microplate reader (PerkinElmer). Reaction rates were determined by linear regression of the resulting progress curves. […] Nonlinear regression fits of the data to a one-site dose-response curve were performed using XLFit (IDBS).

The test system of series [3] is SARS-CoV-2 Omicron (B.1.1.529). In words: microbe, parasite or virus in culture. The series is classed as cell-based. Conditions: Severe acute respiratory syndrome coronavirus 2, Vero C1008, 48 h; read-out: EC50 viral high-content imaging assay.
Series [4] has as its system SARS-CoV-2 Delta (B.1.617). The experiment in a line: microbe, parasite or virus in culture. Conditions: Severe acute respiratory syndrome coronavirus 2, Vero C1008, 48 h; read-out: EC50 viral high-content imaging assay. The series is classed as cell-based.
The test system of a further series is SARS-CoV-2 WT (WA1/2020). The experiment in a line: Live virus high-content imaging assay (nucleocapsid expression), WT. The series is classed as cell-based. Conditions: Severe acute respiratory syndrome coronavirus 2, Vero C1008, Vero-E6 cells, 48 h infection, read-out: EC50 viral high-content imaging assay.
The target in the next series is SARS-CoV-2 Mpro (Severe acute respiratory syndrome coronavirus 2, UniProt P0DTC1). In words: biochemical. The format is biochemical. Conditions: Mpro enzymatic assay.
Series [5] concerns SARS-CoV-2 Beta (B.1.351). The experiment in a line: microbe, parasite or virus in culture. The series is classed as cell-based. Conditions: Severe acute respiratory syndrome coronavirus 2, Vero C1008, 48 h; read-out: EC50 viral high-content imaging assay.
A short description of series [6]: Hamster pharmacokinetics (plasma and lung). The series is classed as in vivo. How it is done: Fig 10 […] pharmacokinetics of 1. Mean plasma and lung concentration-time profiles of compound 1 after single i.p. dose at 10 mg/kg in male hamster (N = 3/time point). In-life parameters of compound 1 are provided for plasma and lung.
To monitor pharmacokinetics of compound 1 following single intraperitoneal administration to male hamsters, compound 1 was prepared prior to use in 10% DMSO, 10% Solutol HS 15, plus 80% PBS in a concentration of 2 mg/mL by weighing 19.65 mg of compound 1 into a new vial and then adding 0.982 mL DMSO into the vial containing the compound and vortexing the vial for 2 min. In addition, 0.982 mL Solutol HS 15 was then added into the vial containing the compound, and the vial was vortexed for 2 min. Also, 7.860 mL of PBS was then added into the vial which was further vortexed for 3 min and sonicated for 0.5 min. Male hamsters weighing 89 g–104 g (N = 18) were purchased from Beijing Weitong Lihua Laboratory Animal Co. Ltd. Hamsters were fasted overnight and fed at 4 h post-dosing. The compound was administered 10 mg/kg (5 mL/kg) via intraperitoneal injection. Sampling was done at 0.25, 0.5, 1, 2, 4, and 6 h post dose, six time points, by terminal bleeding for plasma and lung at each time point. Approximately 150 µL blood/time point was collected into the K2EDTA tube via the jugular vein. The blood sample was put on wet ice and centrifuged to obtain a plasma sample (2,000 g, 5 min under 4°C) within 15 min. Lung collection was performed by making a mid-line incision in the animals’ chest and abdomen, the skin was retracted, and the lung was exposed after cutting off the ribs and removing other organs using surgical scissors and forceps. The lung was removed using surgical scissors and then rinsed with cold saline. The lung was placed in screw-top tubes and then stored under −70°C until analysis. Lung tissue was homogenized for 2 min with two volumes (vol/wt) of PBS (pH 7.4) immediately before analysis by LC-MS/MS.

The mark [7] stands for this setting: enzyme assay, at least 10-point dose-response curves in duplicate, read-out: CatB IC50.
Where [8] appears, read: enzyme assay, at least 10-point dose-response curves in duplicate, read-out: Thrombin IC50.
[9] abbreviates: enzyme assay, at least 10-point dose-response curves in duplicate, read-out: CatL IC50.
[10] abbreviates: single IP dose at 10 mg/kg in male hamster.
Where [11] appears, read: single i.p. dose at 10 mg/kg in male hamster.

T3 sequence (P07711 114-333): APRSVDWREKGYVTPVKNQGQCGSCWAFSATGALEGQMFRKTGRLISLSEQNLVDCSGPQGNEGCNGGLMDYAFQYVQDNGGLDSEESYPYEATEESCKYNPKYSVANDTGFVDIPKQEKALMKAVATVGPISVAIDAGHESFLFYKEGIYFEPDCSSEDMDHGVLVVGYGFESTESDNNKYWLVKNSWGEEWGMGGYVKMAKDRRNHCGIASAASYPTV

With `CC(C)(C)[C@H](NC(=O)C(F)(F)F)C(=O)N1C[C@H]2[C@@H]([C@H]1C(=O)N[C@H](C#N)C[C@@H]1CCNC1=O)C2(C)C` [nirmatrelvir, reference compound], the “reduction in N sub-genomic RNA in lung tissue” value in series [1] ([…], 50 mg/kg i.p. b.i.d., versus vehicle) is 5.2 fold. Also, the “mean reduction in SARS-CoV-2 genomic RNA (E gene) in lung tissue” value in series [1] ([…], versus vehicle) is recorded as 3.0 log.

As to `O=C(CN1C(=O)[C@@H](NC(=O)c2ccccc2)COc2ccccc21)N[C@@H](C[C@@H]1CCNC1=O)C(=O)COC(=O)c1c(Cl)cccc1Cl` [Compound 19], the half-life at 0.5 µM in series [2] is less than 2 min. The IC50 on cathepsin B (setting [7]) is 13 µM.

Regarding `O=C(CN1C(=O)[C@@H](NC(=O)OCc2ccccc2)COc2ccccc21)N[C@@H](C[C@@H]1CCNC1=O)C(=O)COc1cc(C(F)(F)F)nn1-c1ccc(F)cc1` [Compound 21], the IC50 at thrombin (setting [8]) is more than 32 µM; on cathepsin L (setting [9]), more than 32 µM; on cathepsin B (setting [7]), 27 µM.

The compound `N[C@H]1COc2ccccc2N(CC(=O)N[C@@H](C[C@@H]2CCNC2=O)C(=O)COC(=O)c2c(Cl)cccc2Cl)C1=O` [Compound 9] registered a half-life at 0.5 µM in series [2] (mouse) of less than 2 min.

As to `CC(C)C[C@H](NC(=O)OCc1ccccc1)C(=O)N[C@@H](C[C@@H]1CCNC1=O)C(O)S(=O)(=O)O` (some centres unmarked) [GC-376, reference compound], the results for the EC50 (in series [3]; in [4]; with SARS-CoV-2 WT (WA1/2020)) were 0.4 ± 0.5 µM, 0.6 µM and 0.3 ± 0.5 µM, respectively. In addition, the IC50 is more than 10 µM against thrombin, 5e-05 µM on cathepsin L and 0.037 ± 0.015 µM on cathepsin B.

For the compound `O=C(CN1C(=O)[C@@H](NC(=O)c2ccc3ccccc3n2)COc2ccccc21)N[C@@H](C[C@@H]1CCNC1=O)C(=O)COC(=O)c1c(Cl)cccc1Cl` [Compound 20], the half-life at 0.5 µM in [2] was less than 2 min. The concentration for half-maximal inhibition (IC50) was more than 32 µM at thrombin (setting [8]), 23.1 µM at cathepsin L (setting [9]) and 1.8 µM at cathepsin B (setting [7]).

In [2], `COc1cccc2[nH]c(C(=O)N[C@@H](CC(C)C)C(=O)N[C@@H](C[C@@H]3CCNC3=O)C(=O)COC(=O)c3c(Cl)cccc3Cl)cc12` [Compound 18, reference compound] displayed a half-life at 0.5 µM of less than 2 min. For the same compound, the values for the IC50 on cathepsin L (setting [9]) and at cathepsin B (setting [7]) were 0.0018 µM and 0.024 ± 0.0075 µM, respectively. Besides, on SARS-CoV-2 Mpro, the “time to achieve maximum inhibition” value was not above 10 min.

Turning to `O=C(CN1C(=O)C(NC(=O)OCc2ccccc2)COc2ccccc21)NC(CC1CCNC1=O)C(=O)COC(=O)c1c(Cl)cccc1Cl` (centres unmarked) [Compound 1], the EC50 in [3] was 0.9 ± 0.9 µM; in [5], 3.1 µM; in [4], 3 ± 2.4 µM; in the series on SARS-CoV-2 WT (WA1/2020), 2.1 ± 2.1 µM. Also, in series [2], the half-life at 0.5 µM is less than 2 min. Also, in series [1] ([…], 100 mg/kg i.p. b.i.d., versus vehicle, P = 0.002), the “mean reduction in SARS-CoV-2 sub-genomic RNA (N gene) in lung tissue” value is on record as 2.0 log. The “mean reduction in SARS-CoV-2 genomic RNA (E gene) in lung tissue” value in series [1] ([…], versus vehicle) is given as 0.5 log. Besides, the “lung histopathology scores (H&E) compared to vehicle-treated SGH” value in [1] (hamster, in vivo) is “did not observe any significant difference”. For the same compound, the “reduction in SARS-CoV-2 viral titer from lung tissue” value in [1] (hamster, in vivo) is reported as 32.6%. Moreover, the “toxicities or behavioral abnormalities during dosing” value in series [1] (hamster, in vivo) was “no obvious toxicities or behavioral abnormalities”. The IC50 on thrombin (setting [8]) was more than 32 µM; at cathepsin L (as stated in text: no substantial inhibition, read-out: cathepsin L IC50), more than 15 µM; at cathepsin L (setting [9]), more than 32 µM; on cathepsin B (as stated in text: no substantial inhibition, read-out: cathepsin B IC50) it was more than 15 µM; at cathepsin B (setting [7]), 18 µM. For the same compound, in series [6] (lung / plasma, single IP dose at 10 mg/kg in male hamster, read-out: AUClung/AUCplasma), the Kp worked out at 3.2. The half-life is 48.6 min in [6] (lung, single IP dose at 10 mg/kg in male hamster, read-out: lung T1/2 (converted)) and 44 min in [6] (plasma, single IP dose at 10 mg/kg in male hamster, read-out: plasma T1/2 (converted)). Also, the Tmax is 30 min in [6] (lung, single IP dose at 10 mg/kg in male hamster, read-out: lung Tmax) and 15 min in [6] (plasma, single IP dose at 10 mg/kg in male hamster, read-out: plasma Tmax). Further, in [6] (plasma, single IP dose at 10 mg/kg in male hamster), the Cmax was 990 ng/mL. The AUC(0-inf) in [6] (plasma, single IP dose at 10 mg/kg in male hamster, read-out: plasma AUCINF) came out at 1830 ng·h/mL. Besides, the AUC(0-t) in series [6] (plasma, single IP dose at 10 mg/kg in male hamster, read-out: plasma AUClast) turned out to be 1820 ng·h/mL. Also, in series [6] (setting [10]), the “lung AUCINF” value was determined as 5854 ng·h/g. In [6] (setting [10]), the “lung AUClast” value stood at 5818 ng·h/g. For the same compound, the “lung Cmax” value in series [6] (setting [10]) is 3623 ng/g. For the same compound, the “clinical symptoms during the in-life phase” value in series [6] (setting [11]) is on record as “no abnormal clinical symptoms observed”. For the same compound, the “concentration achieved in the lung” value in series [6] (setting [11]) is listed as “about 8 µM”.

The values above are taken from article PMC11459967 (Antimicrobial Agents and Chemotherapy, 2024).
